# From US11235001B2, “RUNX inhibitor” (KYOTO UNIVERSITY, priority 2016, dated 2022)
# Key:
# THP-1 = test: cells; conditions: Homo sapiens, THP-1, 48 h, read-out: IC50 (μM) of PRIMA-1 single agent administration
# Kasumi-1 = test: cells; conditions: Homo sapiens, Kasumi 1, 48 h, read-out: IC50 (μM) of PRIMA-1 single agent administration
# HL60 = test: cells; conditions: Homo sapiens, HL-60, 48 h, read-out: IC50 (μM) of PRIMA-1 single agent administration
# MV4-11NR = test: cells; conditions: Homo sapiens, 48 h, read-out: IC50 (μM) of PRIMA-1 single agent administration
# KG1a = test: cells; conditions: Homo sapiens, KG-1a, 48 h, read-out: IC50 (μM) of PRIMA-1 single agent administration
# A549 cells = test: Xenograft lung cancer mouse model (A549); type: in vivo
# NB4 (p53MT) = test: cells; conditions: Homo sapiens
# UF1 (p53Null) = test: cells; conditions: Homo sapiens
# SU-Ph2 cells = test: Cell growth inhibition assay, SU-Ph2 cells; type: cell-based, human; conditions: SU-Ph2, 48 hours
# [1] = tested on: AML cell lines expressing functional p53 (MV4-11, OCI-AML2, OCI-AML3 and MOLM-13); test: Growth inhibition assay of AML cell lines expressing functional p53; type: cell-based, human; conditions: 48 hours; at between nanomolar to low micromolar levels
# Method: Growth inhibition of some AML cell lines expressing functional p53 (MV4-11, OCI-AML2, OCI-AML3 and MOLM-13) by PI polyamide conjugates at different concentrations was tested. Briefly, the cells were placed at a density of 1×10^5 cells/mL. Different concentrations of a PI polyamide conjugate (Chb-M′ or Chb-50) were added to media, and the cells were incubated for 48 hours (n=3). The number of viable cells when the PI polyamide conjugate was not added was used as a control (DMSO control). Cell viability was assessed by counting the viable cells with Cell Count Reagent SF (Nacalai tesque, Inc.) and Infinite (registered trademark) 200 PRO multimode reader (TECAN) according to the manufacturer's instructions.
# SU/SR cells [2] = conditions: read-out: IC50 value; SU/SR (imatinib-resistant), 48 hours
# IL3, CSF2 and CSF2RB = test: qRT-PCR of RUNX1 target genes in MV4-11 cells; type: cell-based, human; conditions: 5 μM, 6 hours
# [3] = tested on: RUNX family (RUNX1, RUNX2 and RUNX3); test: Gene expression microarray in MV4-11 cells vs RUNX family knockdown; type: cell-based, human; conditions: 1 μM, 6 hours, top 500 up- and down-regulated genes
# [4] = tested on: BCL11A, TRIM24, p21, BAX, PUMA, MDM2, PARP, cleaved caspase-3; test: Immunoblotting of p53 pathway and apoptosis proteins in MV4-11 cells; type: cell-based, human; conditions: 1 μM, 24 hours
# Method: Cells were washed twice with ice cold phosphate-buffered saline (PBS) and harvested in protein lysis buffer [50 mM Tris (pH 7.4), 100 mM NaCl, 0.1 mM EDTA, 1 mM phenylmethylsulfonyl fluoride, 1 mM β-glycerophosphate, 2.5 mM sodium pyrophosphate, 1 mM Na3VO4, lx protease inhibitor (Roche) and PhosSTOP (Roche)]. Whole cell extracts were separated by SDS-polyacrylamide gel electrophoresis (SDS-PAGE) and electrotransferred onto polyvinylidene difluoride membranes. Membranes were probed with the following antibodies: anti-Ctip1 antibody (Abcam, ab19487), anti-TRIM24 antibody (Bethyl Laboratories, Inc), anti-RUNX1 antibody (A-2), anti-GAPDH (FL-335), anti-p21 (C-19), anti-Bax (N-20) antibodies (Santa Cruz Biotechnology, Inc.), anti-RUNX2, anti-RUNX3, anti-p53 antibodies (Cell Signaling Technology), anti-CBFβ antibody (FL-182, Santa Cruz Biotechnology, Inc.), anti-cleaved caspase-3 antibody (5A1E, Cell Signaling Technology), anti-PARP antibody (46D11, Cell Signaling Technology). For secondary antibodies, anti-rabbit IgG, or anti-mosue IgG HRP-linked antibodies (Cell Signaling Technology) were used. Blots were detected using Chemi-Lumi One Super (nacalai tesque, Inc.) and ChemiDoc™ XRS+ Imager (Bio-Rad Laboratories, Inc.), as recommended by the manufacturers. Protein levels were quantified with Image Lab Software (Bio-Rad Laboratories, Inc.).
# Briefly, MV4-11 cells were treated with 1 μM Chb-M′ or Chb-50 for 24 hours. The treated cells were dissolved in the protein lysis buffer. Whole cell extracts were resolved by SDS-polyacrylamide gel electrophoresis (SDS-PAGE) and transferred onto polyvinylidene difluoride membranes. The membranes were probed with each antibody. Blots were detected and quantified. As a control, the cells treated with DMSO were used.
# [5] = tested on: BCL11A, TRIM24, p53, p21, BAX, PUMA and MDM2; test: qRT-PCR of p53 suppressors and p53 target genes in MV4-11 cells; type: cell-based, human; conditions: 1 μM, 6 hours
# Method: A total RNA was isolated with RNeasy mini kit (Qiagen) and reverse transcribed with Reverse script kit (TOYOBO) to generate cDNA. Real-time quantitative polymerase chain reaction (PCR) was carried out with 7500 Real-Time PCR System (Applied Biosystems) according to the manufacturer's instructions. Results were normalized to GAPDH levels. Relative expression levels were calculated using the 2-ΔΔCt method.
# SU/SR cells [6] = test: Xenograft ALL mouse model (SU/SR); type: in vivo; conditions: NOG mice with SU/SR
# MV4-11 cells = test: Xenograft AML mouse model (MV4-11); type: in vivo; conditions: NOG mice with MV4-11, day 14
# DU-145 cells = test: cells; conditions: Homo sapiens, DU-145, 48 h, read-out: IC50 (μM) in DU-145 cells
# [7] = tested on: p53-mutated colon cancer cell line HT29; conditions: HT29, 72 hours
# LNCaP cells = test: cells; conditions: Homo sapiens, 48 h, read-out: IC50 (μM) in LNCaP cells
# [8] = tested on: medulloblastoma cell line DAOY; test: cells; conditions: Homo sapiens, 48 h
compound,measurement,setting,value
"O=C1C2CCN(CC2)C1(CO)CO [PRIMA-1, 2,2-bis(hydroxymethyl)-1-azabicyclo[2.2.2]octan-3-one]",IC50,THP-1,6 µM
same,IC50,Kasumi-1,7.03 µM
same,IC50,HL60,5.74 µM
same,IC50,MV4-11NR,5.5 µM
same,IC50,KG1a,> 100 µM
"COc1cc2ncnc(Nc3ccc(F)c(Cl)c3)c2cc1OCCCN1CCOCC1 [gefitinib, reference compound]",Effect on the lung cancer model,A549 cells; A549 xenograft,did not show effect
same,H&E staining of lung tissue (lung cancer cells in pulmonary alveoli),A549 cells; day 14 after transplantation,densely filled with lung cancer cells
same,"Brightness of luciferase (IVIS), lung","A549 cells; day 14 after transplantation, after 2 administrations",increased
same,"Brightness of luciferase (IVIS), lung","A549 cells; day 21 after transplantation, after total 4 administrations",increased
"CC1=C(/C=C/C(C)=C/C=C/C(C)=C/C(=O)O)C(C)(C)CCC1 [ATRA, all-trans-retinoic acid]",IC50,NB4 (p53MT); 48 h,75.7 µM
same,IC50,NB4 (p53MT); 72 h,60.1 µM
same,IC50,UF1 (p53Null); 48 h,12.4 µM
same,IC50,UF1 (p53Null); 72 h,10.3 µM
CN(C)CCCNC(=O)c1nc(NC(=O)c2nc(NC(=O)c3cc(NC(=O)c4nc(NC(=O)CCCNC(=O)c5cc(NC(=O)c6nc(NC(=O)c7cc(NC(=O)c8cc(NC(=O)CCNC(=O)CCCc9ccc(N(CCCl)CCCl)cc9)cn8C)cn7C)cn6C)cn5C)cn4C)cn3C)cn2C)cn1C [Chb-50],IC50 compared with that of imatinib,SU-Ph2 cells,lower IC50 values
same,Growth inhibition of AML cells,[1],highly effective
same,IC50,SU/SR cells [2],1.42 µM
same,"Expressions of RUNX1 target genes (IL3, CSF2, and CSF2RB), mRNA","IL3, CSF2 and CSF2RB",effectively inhibited
same,Gene expression pattern vs cells with all RUNX family members knockdown,[3],significantly correlated
same,Cleaved form of PARP and cleaved caspase-3 (apoptosis),[4],emergence
same,"Protein expression levels of p53 and downstream proteins (p21, BAX)",[4],increased
same,Protein expression levels of suppressors of p53 (BCL11A and TRIM24),[4],reduced
same,Gene expressions of p53 suppressors BCL11A and TRIM24,[5],down-regulated
same,mRNA expression level of p53,[5],unchanged
same,mRNA expression levels of p21 and PUMA,[5],increased
"Cc1ccc(NC(=O)c2ccc(CN3CCN(C)CC3)cc2)cc1Nc1nccc(-c2cccnc2)n1 [imatinib, reference compound]",H&E staining of bone marrow,SU/SR cells [6],little change
same,Invasion of liver by transplanted PhALL cells (hCD45 staining),SU/SR cells [6],not inhibited
same,"Invasion of spleen by transplanted PhALL cells (hCD45 staining), compared with liver",SU/SR cells [6],same results
same,hCD45 staining of bone marrow (human leukemia cells),SU/SR cells [6],filled with leukemia cells
"Nc1ccn([C@@H]2O[C@H](CO)[C@@H](O)[C@@H]2O)c(=O)n1 [cytarabine, reference compound]",H&E staining of bone marrow,MV4-11 cells,little change
same,hCD45 staining of bone marrow (human leukemia cells),MV4-11 cells,filled with leukemia cells
O=C(O)CCCc1ccc(N(CCCl)CCCl)cc1 [Chlorambucil],IC50,DU-145 cells,38.1 µM
same,IC50 (μM),[7],Not measurable
same,IC50,LNCaP cells,37.6 µM
same,IC50,[8],18.2 µM
